Measurements as given in US5733924A, “DC 107 derivatives and treatment methods” (Kyowa Hakko Kogyo Co., Ltd., priority 1995, dated 1998).
Converted amounts (≈) assume the structure as drawn. Like-named read-outs stand apart in the source and are kept apart here.

Columns and labels:
[1] = system: Enterococcus faecium ATCC 10541; test: Antibacterial activity, agar dilution method (MIC); assay type: cell-based
Description: (§1) The antibacterial activity as determined by the agar dilution method using a medium prepared by dissolving 3 g of Bacto-Tryptone (a product of Difco Laboratories), 3 g of a meat extract, 1 g of an yeast extract, 1 g of glucose and 16 g of agar in one liter of water (pH 7).
EF: Enterococcus faecium ATCC 10541

[2] = system: Bacillus subtilis No. 10707; test: Antibacterial activity, agar dilution method (MIC); assay type: cell-based
Description: as §1
BS: Bacillus subtilis No. 10707

[3] = system: Klebsiella pneumoniae ATCC 10031; test: Antibacterial activity, agar dilution method (MIC); assay type: cell-based
Description: as §1
KP: Klebsiella pneumoniae ATCC 10031

[4] = system: Staphylococcus aureus ATCC 6538P; test: Antibacterial activity, agar dilution method (MIC); assay type: cell-based; details: ATCC6538P
Description: as §1
SA: Staphylococcus aureus ATCC 6538P

Escherichia coli ATCC 26 = test: Antibacterial activity, agar dilution method (MIC); assay type: cell-based; details: ATCC26, EC: Escherichia coli ATCC 26, pH 7, read-out: MIC (minimum growth inhibitory concentration)
Description: as §1
EC: Escherichia coli ATCC 26

P388 Leukemia = test: Antitumor activity against P388 leukemia in mice (increased life span); assay type: in vivo, CDF1 mice; details: Mus musculus, P388, ip, 720 h
Procedure: Ascites were collected from the abdominal cavity of P388 ascites tumor-bearing cancer mice (DBA/2) on the 7th day after transplantation. A number of P388 cells in the ascites was counted, and a tumor cell floating liquid of 5×10^6 cells/ml was prepared using a physiological saline solution. Then, 0.2 ml of the solution containing 1×10^6 cells was transplanted into the abdominal cavity of CDF1 mice having a body weight of from 20 to 25 g.
The effect of the test compound was determined in terms of the ratio of average survival days of the group administered with the test compound to average survival days of the control group (non-medicated group) (i.e., an increased life span, ILS%).

[5] = Enterococcus faecium, ATCC10541, pH 7, read-out: MIC (minimum growth inhibitory concentration), EF: Enterococcus faecium ATCC 10541
[6] = Bacillus subtilis, NO.10707, pH 7, read-out: MIC (minimum growth inhibitory concentration), BS: Bacillus subtilis No. 10707
[7] = Klebsiella pneumoniae, ATCC10031, pH 7, read-out: MIC (minimum growth inhibitory concentration)
[8] = Staphylococcus aureus, pH 7, read-out: MIC (minimum growth inhibitory concentration)
[9] = ATCC10541, EF: Enterococcus faecium ATCC 10541, pH 7, read-out: MIC (minimum growth inhibitory concentration)
[10] = BS: Bacillus subtilis No. 10707, pH 7, read-out: MIC (minimum growth inhibitory concentration)
[11] = ATCC10031, KP: Klebsiella pneumoniae ATCC 10031, agar dilution, pH 7, read-out: MIC (minimum growth inhibitory concentration)
[12] = SA: Staphylococcus aureus ATCC 6538P, agar dilution, pH 7, read-out: MIC (minimum growth inhibitory concentration)
[13] = single i.p. 24 hours after transplantation, CDF1 mice, 30 days observation

Row | MIC [1, 9] [µg/mL] | MIC [2, 10] [µg/mL] | MIC [3, 11] [µg/mL] | MIC [4, 12] [µg/mL] | SMILES | further results
1 | – | – | – | – | C/C1=C\C(O)C(=O)/C=C/C=C\c2csc(n2)C(C)N2C(=O)CC(C(C)(O)C(=O)SCOC(=O)C3CCC3)(CC1)[S+]2[O-] (stereo not shown) [Compound 78] | MIC [1, 5]: 9.4 µg/mL (≈ 15.1 µM); MIC [2, 6]: 0.073 µg/mL (≈ 0.117 µM); MIC [3, 7]: 2.3 µg/mL (≈ 3.69 µM); MIC [4, 8]: 4.7 µg/mL (≈ 7.55 µM)
2 | – | – | – | – | C/C1=C\C(O)C(=O)/C=C/C=C\c2csc(n2)C(C)N2C(=O)CC(C(C)(O)C(=O)SCOC(=O)C3CCCCC3)(CC1)[S+]2[O-] (stereo not shown) [Compound 80] | MIC [1, 5]: 5.2 µg/mL (≈ 7.99 µM); MIC [2, 6]: 0.041 µg/mL (≈ 0.063 µM); MIC [4, 8]: 2.6 µg/mL (≈ 3.99 µM)
3 | 0.39 (≈ 0.585 µM) | 0.049 (≈ 0.0735 µM) | 0.098 (≈ 0.147 µM) | 0.39 (≈ 0.585 µM) | CCCCCCCC(=O)OCSC(=O)C(C)(O)C12CC/C(C)=C/C(O)C(=O)/C=C/C=C\c3csc(n3)C(C)N(C(=O)C1)[S+]2[O-] (stereo not shown) [Compound 84] | –
4 | 54 (≈ 77.7 µM) | 0.11 (≈ 0.158 µM) | 1.7 (≈ 2.45 µM) | 0.85 (≈ 1.22 µM) | CCOC(C)OC1/C=C(\C)CCC2(C(C)(O)C(=O)SCc3oc(=O)oc3C)CC(=O)N(C(C)c3nc(cs3)/C=C\C=C\C1=O)[S+]2[O-] (stereo not shown) [Compound 87] | MIC (Escherichia coli ATCC 26): 6.8 µg/mL (≈ 9.79 µM)
5 | 0.78 (≈ 1.12 µM) | 0.26 (≈ 0.374 µM) | 0.39 (≈ 0.561 µM) | 0.78 (≈ 1.12 µM) | COC(C)(C)OC1/C=C(\C)CCC2(C(C)(O)C(=O)SCc3oc(=O)oc3C)CC(=O)N(C(C)c3nc(cs3)/C=C\C=C\C1=O)[S+]2[O-] (stereo not shown) [Compound 121] | –
6 | 1 (≈ 1.36 µM) | 0.033 (≈ 0.0449 µM) | 4.2 (≈ 5.71 µM) | 1 (≈ 1.36 µM) | COC1(OC2C=C(C)CCC3(C(C)(O)C(=O)SCc4oc(=O)oc4C)CC(=O)N(C(C)c4nc(cs4)C=CC=CC2=O)[S+]3[O-])CCCCC1 (stereo not shown) [Compound 126] | –
7 | 0.65 (≈ 0.863 µM) | 0.041 (≈ 0.0545 µM) | 2.6 (≈ 3.45 µM) | 0.65 (≈ 0.863 µM) | COC1(OC2C=C(C)CCC3(C(C)(O)C(=O)SCc4oc(=O)oc4C)CC(=O)N(C(C)c4nc(cs4)C=CC=CC2=O)[S+]3[O-])CCSCC1 (stereo not shown) [Compound 127] | ILS at 16 mg/kg (P388 Leukemia; [13]): 52%
8 | 2.1 (≈ 2.5 µM) | 2.1 (≈ 2.5 µM) | 2.1 (≈ 2.5 µM) | 2.1 (≈ 2.5 µM) | CC1=CC(OC(=O)CNC(=O)CNC(=O)c2ccccc2)C(=O)C=CC=Cc2csc(n2)C(C)N2C(=O)CC(C(C)(O)C(=O)SCc3oc(=O)oc3C)(CC1)[S+]2[O-] (stereo not shown) [Compound 167] | ILS at 16 mg/kg (P388 Leukemia; [13]): 90%
9 | – | – | – | – | CC1=CC(OC(=O)CNC(=O)CN(C)C(=O)OCc2ccccc2)C(=O)C=CC=Cc2csc(n2)C(C)N2C(=O)CC(C(C)(O)C(=O)SCc3oc(=O)oc3C)(CC1)[S+]2[O-] (stereo not shown) [Compound 172] | MIC [1, 5]: 1 µg/mL (≈ 1.13 µM); MIC [2, 6]: 1 µg/mL (≈ 1.13 µM); MIC [3, 7]: 1 µg/mL (≈ 1.13 µM); ILS at 4 mg/kg (P388 Leukemia; read-out: ILS (increased life span)): 65%; MIC [4, 8]: 2.1 µg/mL (≈ 2.37 µM)
10 | – | – | – | – | CC1=CC(OC(=O)CN(C)C(=O)CCNC(=O)OCc2ccccc2)C(=O)C=CC=Cc2csc(n2)C(C)N2C(=O)CC(C(C)(O)C(=O)SCc3oc(=O)oc3C)(CC1)[S+]2[O-] (stereo not shown) [Compound 175] | ILS at 16 mg/kg (P388 Leukemia; [13]): 65%
11 | – | – | – | – | CC1=CC(OC(=O)CCNC(=O)CNC(=O)OCc2ccccc2)C(=O)C=CC=Cc2csc(n2)C(C)N2C(=O)CC(C(C)(O)C(=O)SCc3oc(=O)oc3C)(CC1)[S+]2[O-] (stereo not shown) [Compound 176] | ILS at 16 mg/kg (P388 Leukemia; [13]): 75%
12 | – | – | – | – | CC1=CC(OC(=O)CCNC(=O)CCNC(=O)OCc2ccccc2)C(=O)C=CC=Cc2csc(n2)C(C)N2C(=O)CC(C(C)(O)C(=O)SCc3oc(=O)oc3C)(CC1)[S+]2[O-] (stereo not shown) [Compound 177] | ILS at 32 mg/kg (P388 Leukemia; 32 mg/kg, single i.p. 24 hours after transplantation, CDF1 mice, 30 days observation): 52%

Row | SMILES | MIC [1, 9] [µg/mL] | MIC [2, 10] [µg/mL] | MIC [3, 11] [µg/mL] | MIC [4, 12] [µg/mL] | further results
13 | COC1(OC2/C=C(\C)CCC3(CC(=O)NC(C)c4nc(cs4)/C=C\C=C\C2=O)[S+]([O-])SC(=O)C3(C)O)CCOCC1 (stereo not shown) [Compound 90] | 0.041 (≈ 0.0656 µM) | 0.02 (≈ 0.032 µM) | 0.16 (≈ 0.256 µM) | 0.041 (≈ 0.0656 µM) | MIC (Escherichia coli ATCC 26): 0.65 µg/mL (≈ 1.04 µM)
14 | C/C1=C\C(OC(=O)CNC(=O)[C@H](CO)NC(=O)OCc2ccccc2)C(=O)/C=C/C=C\c2csc(n2)C(C)NC(=O)CC2(CC1)[S+]([O-])SC(=O)C2(C)O (stereo partly shown) [Compound 116] | 0.033 (≈ 0.0418 µM) | 0.033 (≈ 0.0418 µM) | 0.033 (≈ 0.0418 µM) | 0.033 (≈ 0.0418 µM) | MIC (Escherichia coli ATCC 26): 4.2 µg/mL (≈ 5.32 µM)
